From patent US8338450B2, “Compounds as dipeptidyl peptidase IV (DPP IV) inhibitors” (Lupin Limited, priority 2007, dated 2012)
Where a name gives a salt, the structure may show the parent alone.

Each molecule was assayed against T1, human recombinant DPP-IV (Homo sapiens, UniProt P27487) (assay: Inhibition of human recombinant DPP-IV (Gly-Pro-AMC hydrolysis, fluorometric)). Conditions: compound 10 nM; relative to vehicle controls.
T1 construct: purchased R&D Systems, USA (or produced in-house)
Type: biochemical
Experimental: Inhibition of Human Recombinant DPP-IV
The proteolytic activity of human recombinant DPP-IV was determined by following the hydrolysis of Gly-Pro-7-amino-4-methylcoumarin (Gly-Pro-AMC) and the fluorometric quantitation of the liberated AMC. Assays were routinely carried out in 96-well flat-bottom black microwell plates. The reaction mixture (100 μl) contained 10 ng of human recombinant DPP-IV enzyme (produced in-house or procured from R&D Systems, USA) in the assay buffer (25 mM Tris-HCl, pH 7.4, 140 mM NaCl, 10 mM KCl and 0.1 mg/ml BSA) and 50 μM Gly-Pro-AMC. After incubation of assay plates at 30° C. for 30 min, the hydrolysis of Gly-Pro-AMC was monitored in a fluorescence microplate reader (Molecular Devices SpectraMax M5), with excitation and emission wavelengths set at 360 nm and 460 nm, respectively.
The inhibition of DPP-IV activity by test compounds was routinely performed by preincubating the enzyme with test compound (10 and 100 nM for primary screening and 8 concentrations from 0.1 to 1000 nM for the dose-response study) or vehicle (0.01% DMSO) for 15 min at 30° C., in a total volume of 90 μl. Test compounds were dissolved in DMSO at a concentration of 10 mM and serially diluted further in assay buffer. The enzyme reaction was initiated by the addition of Gly-Pro-AMC, followed by incubation of assay plates for 30 min at 30° C. and the liberated AMC was measured as described above. A known inhibitor of DPP-IV (positive control) was always included in the assay. Test compounds at various concentrations were always evaluated in duplicate, along with substrate blanks, vehicle controls and positive controls.
The results are expressed as percent inhibition of the enzyme activity relative to vehicle controls. Dose-response studies were conducted for those compounds exerting ≧50% inhibition of activity at 10 nM in primary screening. IC50, defined as the inhibitor concentration which caused a 50% decrease of the activity under assay conditions, was computed using GraphPad Prism software, version 5.0.
The DPP-IV inhibition data (expressed either as IC50 in nanomolar or percent inhibition at a particular compound concentration) is presented in Table 1.

T1 sequence (P27487 whole entry): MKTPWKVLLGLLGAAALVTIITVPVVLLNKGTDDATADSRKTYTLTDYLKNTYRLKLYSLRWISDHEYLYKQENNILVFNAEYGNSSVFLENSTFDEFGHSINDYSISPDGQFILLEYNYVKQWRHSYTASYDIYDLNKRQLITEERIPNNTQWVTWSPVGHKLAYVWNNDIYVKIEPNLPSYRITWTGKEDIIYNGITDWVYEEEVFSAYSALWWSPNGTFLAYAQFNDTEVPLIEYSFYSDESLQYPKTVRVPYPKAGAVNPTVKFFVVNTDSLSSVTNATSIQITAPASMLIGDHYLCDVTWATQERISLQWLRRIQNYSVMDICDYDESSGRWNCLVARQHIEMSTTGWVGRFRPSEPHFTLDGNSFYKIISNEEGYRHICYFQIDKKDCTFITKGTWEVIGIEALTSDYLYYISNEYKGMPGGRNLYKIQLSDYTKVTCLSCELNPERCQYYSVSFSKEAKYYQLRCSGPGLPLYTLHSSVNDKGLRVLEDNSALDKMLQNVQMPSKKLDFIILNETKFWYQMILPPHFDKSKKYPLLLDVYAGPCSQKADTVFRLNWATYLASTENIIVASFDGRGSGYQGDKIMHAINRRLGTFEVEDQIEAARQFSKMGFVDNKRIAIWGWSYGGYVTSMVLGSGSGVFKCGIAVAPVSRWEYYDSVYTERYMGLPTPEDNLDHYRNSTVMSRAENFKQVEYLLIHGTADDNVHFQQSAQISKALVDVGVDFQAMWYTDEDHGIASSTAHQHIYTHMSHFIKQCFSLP

SMILES	% inhibition at 10 nM
COc1ccccc1NC(=S)N1C2CCC1CC([C@H](N)C(=O)N1[C@H](C#N)C[C@@H]3C[C@@H]31)C2.O=C(O)C(F)(F)F (stereo partly drawn) [Compound 68, (1S,3S,5S)-2-{(2S)-2-Amino-2-[8-(2-methoxyphenylthiocarbamoyl)-8-aza-bicyclo[3.2.1]oct-3-yl]-exo-ethanoyl}-2-azabicyclo[3.1.0]-hexane-3-carbonitrile trifluoroacetic acid salt]	16% inhibition at 10 nM
N#C[C@@H]1C[C@@H]2C[C@@H]2N1C(=O)[C@@H](N)C1CC2CCC(C1)N2C(=O)NS(=O)(=O)c1ccc(Cl)cc1.O=C(O)C(F)(F)F (stereo partly drawn) [Compound 61, (1S,3S,5S)-2-{(2S)-2-Amino-2-[8-(4-chlorophenylsulfonylcarbamoyl)-8-aza-bicyclo[3.2.1]oct-3-yl]-exo-ethanoyl}-2-azabicyclo[3.1.0]hexane-3-carbonitrile trifluoroacetic acid salt]	9% inhibition at 10 nM
N#Cc1ccc(N2C3CCC2CC([C@H](N)C(=O)N2[C@H](C#N)C[C@@H]4C[C@@H]42)C3)cc1.O=C(O)C(F)(F)F (stereo partly drawn) [Compound 52, (1S,3S,5S)-2-{(2S)-2-Amino-2-[8-(4-cyano-phenyl)-8-aza-bicyclo[3.2.1]oct-3-yl]-exo-ethanoyl}-2-azabicyclo[3.1.0]hexane-3-carbonitrile trifluoro acetic acid salt]	25% inhibition at 10 nM

Same assay, conditions: human recombinant DPP-IV, 50 μM Gly-Pro-AMC, 30 min at 30° C.

SMILES	IC50
N#C[C@@H]1CCCN1C(=O)[C@@H](N)C1CC2CCC(C1)N2C(=O)c1cc(F)ccc1F (stereo partly drawn) [Compound 6, (2S)-1-{(2S)-2-Amino-2-[8-(2,5-difluorobenzoyl)-8-aza-bicyclo[3.2.1]oct-3-yl]-exo-ethanoyl}-pyrrolidin-2-carbonitrile trifluoroacetic acid salt]	2.3 nM
N#C[C@@H]1C[C@@H]2C[C@@H]2N1C(=O)[C@@H](N)C1CC2CCC(C1)N2S(=O)(=O)c1cccs1 (stereo partly drawn) [Compound 57, (1S,3S,5S)-2-{(2S)-2-Amino-2-[8-(thiophene-2-sulfonyl)-8-aza-bicyclo[3.2.1]oct-3-yl]-exo-ethanoyl}-2-azabicyclo[3.1.0]hexane-3-carbonitrile trifluoroacetic acid salt]	8 nM
N#C[C@@H]1CCCN1C(=O)[C@@H](N)C1CC2CCC(C1)N2C(=O)Nc1ccc(C(F)(F)F)cc1 (stereo partly drawn) [Compound 22, (2S)-1-{(2S)-2-Amino-2-[8-(4-trifluoromethylphenylcarbamoyl)-8-aza-bicyclo[3.2.1]oct-3-yl]exo-ethanoyl}-pyrrolidin-2-carbonitrile trifluoroacetic acid salt]	2.83 nM
N#C[C@@H]1C[C@H](F)CN1C(=O)[C@@H](N)C1CC2CCC(C1)N2Cc1cc(F)c(F)cc1F (stereo partly drawn) [Compound 19, (2S,4S)-1-{(2S)-2-Amino-2-[8-(2,4,5-trifluorobenzyl)-8-aza-bicyclo[3.2.1]oct-3-yl]-exo-ethanoyl}-4-fluoro-pyrrolidin-2-carbonitrile trifluoroacetic acid salt]	6.25 nM

Same assay, conditions: read-out: % inhibition at 1000 nM

SMILES	inhibition at 1 µM
N[C@H](C(=O)N1CCC[C@H]1C(=O)O)C1CC2CCC(C1)N2C(=O)c1ccc(C(F)(F)F)cc1 (stereo partly drawn) [Compound 11, (2S)-1-{(2S)-2-amino-2-[8-(4-trifluoromethyl-benzoyl)-8-aza-bicyclo[3.2.1]-oct-3-yl]-exo-ethanoyl}-pyrrolidin-2-carboxylic acid trifluoroacetic acid salt]	29%
NC(=O)[C@@H]1C[C@@H]2C[C@@H]2N1C(=O)[C@@H](N)C1CC2CCC(C1)N2C(=O)c1ccc2c(c1)OCO2 (stereo partly drawn) [Compound 45, (1S,3S,5S)-2-{(2S)-2-Amino-2-[8-(benzo-[1,3]dioxole-5-carbonyl)-8-aza-bicyclo[3.2.1]oct-3-yl]-exo-ethanoyl}-2-azabicyclo[3.1.0]-hexane-3-carboxamide trifluoro acetic acid salt]	12%
